Experimental data reported in patent US7671079B2, “Sulfonyltetrahydro-3H-benzo(e)indole-8-amine compounds as 5-hydroxytryptamine-6 ligands” (Wyeth LLC, priority 2003, dated 2010).
pKi: −log10 of the molar value.

molecular target: T1, human cloned 5-HT6 receptors (Homo sapiens, UniProt P50406); assay: 5-HT6 binding affinity, [3H]-LSD displacement on membranes of Hela cells expressing human cloned 5-HT6 receptors; conditions: [3H]-LSD 3.0 nM, Hela cell membranes, 120 min at room temperature
T1 construct: expressed in transfected cells; host or cells: Hela cells
Description: The affinity of test compounds for the serotonin 5-HT6 receptor is evaluated in the following manner. Cultured Hela cells expressing human cloned 5-HT6 receptors are harvested and centrifuged at low speed (1,000×g) for 10.0 min to remove the culture media. The harvested cells are suspended in half volume of fresh physiological phosphate buffered saline solution and recentrifuged at the same speed. This operation is repeated. The collected cells are then homogenized in ten volumes of 50 mM Tris.HCl (pH 7.4) and 0.5 mM EDTA. The homogenate is centrifuged at 40,000×g for 30.0 min and the precipitate is collected. The obtained pellet is resuspended in 10 volumes of Tris.HCl buffer and recentrifuged at the same speed. The final pellet is suspended in a small volume of Tris.HCl buffer and the tissue protein content is determined in aliquots of 10-25 μl volumes. Bovine Serum Albumin is used as the standard in the protein determination according to the method described in Lowry et al., J. Biol. Chem., 193:265 (1951). The volume of the suspended cell membranes is adjusted to give a tissue protein concentration of 1.0 mg/ml of suspension. The prepared membrane suspension (10 times concentrated) is aliquoted in 1.0 ml volumes and stored at −70° C. until used in subsequent binding experiments.
Binding experiments are performed in a 96 well microtiter plate format, in a total volume of 200 μl. […] The test compounds are added in 20.0 μl volume.
The reaction is allowed to proceed in the dark for 120 min at room temperature, at which time, the bound ligand-receptor complex is filtered off on a 96 well unifilter with a Packard Filtermate® 196 Harvester. The bound complex caught on the filter disk is allowed to air dry and the radioactivity is measured in a Packard TopCount® equipped with six photomultiplier detectors, after the addition of 40.0 μl Microscint®-20 scintillant to each shallow well. The unifilter plate is heat-sealed and counted in a PackardTopCount® with a tritium efficiency of 31.0%.
Binding in the presence of varying concentrations of test compound is expressed as a percentage of specific binding in the absence of test compound. The results are plotted as log % bound versus log concentration of test compound. […] A linear regression line of data points is plotted, from which the IC50 value is determined and the Ki value is determined based upon the following equation: Ki=IC50/(1+L/KD) where L is the concentration of the radioactive ligand used and KD is the dissociation constant of the ligand for the receptor, both expressed in nM.

T1 sequence (P50406 whole entry): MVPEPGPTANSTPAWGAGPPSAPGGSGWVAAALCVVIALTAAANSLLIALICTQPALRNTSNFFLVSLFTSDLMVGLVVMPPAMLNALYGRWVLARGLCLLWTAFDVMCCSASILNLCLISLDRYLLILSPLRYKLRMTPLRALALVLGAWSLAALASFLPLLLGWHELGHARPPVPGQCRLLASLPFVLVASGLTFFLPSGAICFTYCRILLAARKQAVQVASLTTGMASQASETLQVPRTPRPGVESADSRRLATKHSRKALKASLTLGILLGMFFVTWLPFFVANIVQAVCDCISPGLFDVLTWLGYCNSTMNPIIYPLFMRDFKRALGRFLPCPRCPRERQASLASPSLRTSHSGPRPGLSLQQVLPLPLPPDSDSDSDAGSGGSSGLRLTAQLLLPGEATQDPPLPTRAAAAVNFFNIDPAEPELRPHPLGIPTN

Row | Molecule | pKi
1 | 3-[(2,3-dichlorophenyl)sulfonyl]-N,N-dimethyl-6,7,8,9-tetrahydro-3H-benzo[e]indol-8-amine [Example 16] | 8.22
2 | 3-[(2,6-dichloroimidazo[2,1-b][1,3]thiazol-5-yl)sulfonyl]-N,N-dimethyl-6,7,8,9-tetrahydro-3H-benzo[e]indol-8-amine [Example 19] | 8.30
3 | CN(C)C1CCc2ccc3c(ccn3S(=O)(=O)c3ccccc3)c2C1 (stereo not shown) [Example 8, N,N-Dimethyl-3-(Phenylsulfonyl)-6,7,8,9-tetrahydro-3H-benzo[e]indol-8-amine] | 9.00
4 | CN(C)C1CCc2ccc3c(ccn3S(=O)(=O)c3ccc(OC(F)(F)F)cc3)c2C1 (stereo not shown) [Example 9] | 7.10
5 | CN(C)C1CCc2ccc3c(ccn3S(=O)(=O)c3ccc(F)cc3)c2C1 (stereo not shown) [Example 11, 3-[(4-fluorophenyl)sulfonyl]-N,N-dimethyl-6,7,8,9-tetrahydro-3H-benzo[e]indol-8-amine] | 7.72
6 | CN(C)C1CCc2ccc3c(ccn3S(=O)(=O)c3ccc(C(F)(F)F)cc3Cl)c2C1 (stereo not shown) [Example 12] | 7.26
7 | CN(C)C1CCc2ccc3c(ccn3S(=O)(=O)c3ccc(F)c(F)c3)c2C1 (stereo not shown) [Example 13, 3-[(3,4-difluorophenyl)sulfonyl]-N,N-dimethyl-6,7,8,9-tetrahydro-3H-benzo[e]indol-8-amine] | 8.05
8 | CN(C)C1CCc2ccc3c(ccn3S(=O)(=O)c3ccccc3Cl)c2C1 (stereo not shown) [Example 14, 3-[(2-chlorophenyl)sulfonyl]-N,N-dimethyl-6,7,8,9-tetrahydro-3H-benzo[e]indol-8-amine] | 8.70
9 | CN(C)C1CCc2ccc3c(ccn3S(=O)(=O)c3cccc(Cl)c3)c2C1 (stereo not shown) [Example 15, 3-[(3-chlorophenyl)sulfonyl]-N,N-dimethyl-6,7,8,9-tetrahydro-3H-benzo[e]indol-8-amine] | 8.70

Continued, values first:

Row | pKi | Molecule
10 | 8.10 | CN(C)C1CCc2ccc3c(ccn3S(=O)(=O)c3ccc(F)cc3F)c2C1 (stereo not shown) [Example 17, 3-[(2,4-diflorophenyl)sulfonyl]-N,N-dimethyl-6,7,8,9-tetrahydro-3H-benzo[e]indol-8-amine]
11 | 8.22 | CN(C)C1CCc2ccc3c(ccn3S(=O)(=O)c3c(Cl)nc4sccn34)c2C1 (stereo not shown) [Example 18, 3-[(6-chloroimidazo[2,1-b][1,3]thiazol-5-yl)sulfonyl]-N,N-dimethyl-6,7,8,9-tetrahydro-3H-benzo[e]indol-8-amine]
12 | 7.23 | Cc1noc(C)c1S(=O)(=O)n1ccc2c3c(ccc21)CCC(N(C)C)C3 (stereo not shown) [Example 20]
13 | 6.99 | Cc1ccc(S(=O)(=O)n2ccc3c4c(ccc32)CCC(NC2CC2)C4)cc1 (stereo not shown) [Example 21]
14 | 7.44 | Cc1ccc(S(=O)(=O)n2ccc3c4c(ccc32)CCC(NC2CCC2)C4)cc1 (stereo not shown) [Example 24]
15 | 7.92 | CCCNC1CCc2ccc3c(ccn3S(=O)(=O)c3ccc(C)cc3)c2C1 (stereo not shown) [Example 25]
16 | 7.89 | N,N-dimethyl-3-(2-naphthylsulfonyl)-6,7,8,9-tetrahydro-3H-benzo[e]indol-8-amine [Example 10]
